Measurements taken from patent US12285393B2, “Roles of modulators of intersectin-Cdc42 signaling in Alzheimer's disease” (priority 2017, dated 2025).
pIC50: −log10 of the molar value.

What was measured:
C57BL/6 mice = assay: Toxicity experiment, I.P. injection; assay type: in vivo; conditions: 0.4 mg/g or 0.8 mg/g body weight I.P.; 1 hour or 2 weeks
Protocol: ZCL 278 Toxicity Experiment: Individual C57BL/6 mice of 4-6 months of age from Jackson Laboratory (Bar Harbor, Maine, United States of America) were submitted to ZCL278 treatment for 5 minutes, 30 minutes, 2 hours and 24 hours. The dosage of ZCL278 for each mouse was 0.8 mg/g body weight delivered via intraperitoneal (I.P.) injection of a 15 mg/ml solution of ZCL278 was dissolved in the sesame oil (10% DMSO).
ZCL 279 Toxicity Experiment: Individual C57BL/6 mice of 4-6 months of age from Jackson Laboratory (Bar Harbor, Maine, United States of America) were submitted to ZCL279 treatment for 5 minutes, 30 minutes, 2 hours and 24 hours. The dosage of ZCL279 for each mouse was 0.6 mg/g body weight delivered via intraperitoneal (I.P.) injection of a 15 mg/ml solution of ZCL279 was dissolved in the sesame oil (10% DMSO).
ZCL367 Toxicity Experiment: Individual C57BL/6 mice of 4-6 months of age from Jackson Laboratory (Bar Harbor, Maine, United States of America) were submitted to ZCL367 treatment for 1 hour or 2 weeks. The dosage of ZCL367 for each time period was 0.4 mg/g body weight or 0.8 mg/g body weight, delivered via I.P. injection. […] Mice were sacrificed after end of 1 hour or 2 weeks.

Cdc42 [1] = target: T1, Cdc42 (Homo sapiens, UniProt P60953); assay: Rho-GEF IC50 assay (GEF/DH domain-mediated mant-GTP binding); assay type: biochemical; design: purchased Cytoskeleton Inc; conditions: read-out: IC50, GEF/DH domain-mediated mant-GTP binding/Cdc42 activation
T1 sequence (P60953 whole entry, the tested form may be a part): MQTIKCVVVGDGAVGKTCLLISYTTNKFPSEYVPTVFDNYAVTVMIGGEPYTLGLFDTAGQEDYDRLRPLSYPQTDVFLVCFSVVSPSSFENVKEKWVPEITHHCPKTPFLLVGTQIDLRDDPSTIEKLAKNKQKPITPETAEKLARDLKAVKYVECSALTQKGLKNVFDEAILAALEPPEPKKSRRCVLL
Protocol: (§1) Rho-GEF IC50 Assay: Rho-GEF assay (Cytoskeleton Inc., Denver, Colorado, United States of America) was conducted per manufacturer's instructions (λex=360 nm, λem=460 nm). Briefly, a solution (50 μL) of purified Rho GTPase (1 μM) and mant-GTP (1.5 μM) with or without compound (0.001-500 μM) was prepared and the absorbance monitored for 10-30 min to obtain the background/baseline. The addition of purified GEF/DH domain (0.08-0.2 μM) was carried out simultaneously and the absorbance was recorded for 30-45 min. The linear slope following the addition of the GEF was calculated and expressed as percentage of the control and plotted on an IC50 curve.

RhoA = target: T2, RhoA (Homo sapiens, UniProt P61586); assay: as above; assay type: biochemical
T2 construct: purchased Cytoskeleton Inc
T2 sequence (P61586 whole entry): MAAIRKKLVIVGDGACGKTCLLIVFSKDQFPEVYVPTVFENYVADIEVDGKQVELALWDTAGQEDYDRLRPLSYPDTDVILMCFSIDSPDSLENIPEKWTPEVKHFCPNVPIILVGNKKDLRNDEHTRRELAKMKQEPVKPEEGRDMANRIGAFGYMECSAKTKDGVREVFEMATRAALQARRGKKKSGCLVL
Protocol: as §1

Rac1 = target: T3, Rac1 (Homo sapiens, UniProt P63000); assay: as above; assay type: biochemical
T3 construct: purchased Cytoskeleton Inc
Protocol: as §1

mice = assay: Long-term survival after one injection; assay type: in vivo
Protocol: Long-term Survival. Groups of 10 mice were treated with one injection of ZCL278 (up to 0.8 mg/g), ZCL279 (up to 0.6 mg/g), or ZCL367 (up to 1.6 mg/g) to examine potential lethal dosage (the maximal dosage tested when no mice died). […] Durations longer than 3 months have not been tested. As a reference, working dosage for the behavioral assessment described below used 20 ug/g for injection, […] than the highest dosage of 0.8 mg/g tested in the long-term survival experiment.

Cdc42 [2] = target: T1, Cdc42; assay: mant-GTP binding to Cdc42 with or without GEF/DH domain; assay type: biochemical; design: purchased Cytoskeleton Inc; conditions: 5-500 μM
Protocol: (§2) Cdc42 (1 μM) was incubated with mant-GTP (1.5 μM) and varying concentrations of ZCL278, ZCL279, or ZCL367 (5-500 μM). Fluorescent readings were taken every minute for 10 m to acquire the baseline. The GEF/DH domain (0.08-0.2 μM) was added followed by readings taken every minute for another 30 m. The linear phase was calculated from within the time period of 12-22 m. Cdc42 (1 μM) was incubated with mant-GTP (1.5 μM) and varying concentrations of ZCL278, ZCL279, or ZCL367 (5-500 μM). Fluorescent readings were taken every minute for 30 m to monitor the binding of mant-GTP in the absence of GEF/DH domain.

[3] = Solubility profile by optical density; assay type: physicochemical; conditions: for Ratio (optical density solution/solvent alone) / optical density of solution: RT, 10 minutes
Excerpt: ZCL278, ZCL279, and ZCL367 were all tested for solubility in the 5 FDA approved solvents to be used in humans. […] Results are shown below in Tables 2-4. Ratio refers to the optical density of the solution comprising the modulator compound/the optical density of the carder/solvent alone.

Cdc42 [4] = target: T1, Cdc42; assay: Cdc42-GEF-assay, additional compound screening; assay type: biochemical; design: purchased Cytoskeleton Inc; conditions: percentages of ZCL367 normalized to batch; less than 100% = more potent inhibitor
Protocol: as §1, §2
Cdc42-GEF-assays were conducted on additional screening compounds in batches of 9 compounds per batch as described above in Example 2 using ZCL278 and ZCL367 as standards. Screening compounds were taken from the Specs Chemistry Database of 197,000 compounds for small molecule or the National Cancer Institute Compound Library. […] These compounds promote Cdc42-mantGTP binding without GEF. It is possible that these compounds can inhibit Cdc42-mantGTP binding with GEF. […] These compounds appear to have activity like ZCL279. […] However, upon the addition of GEF, the compounds appear to facilitate the binding of mantGTP to Cdc42 (high assay slope, relative to ZCL278)

Swiss 3T3 cells = assay: Immunofluorescence, cell morphology and bradykinin-mediated activation; assay type: cell-based
Protocol: Immunofluorescence: Serum-starved Swiss 3T3 cells were pretreated with compound for 2 h before the addition of bradykinin (100 ng/mL) for 20 min. Cells were fixed in 4% paraformaldehyde for 15 min at RT and stored in PBS. Fixed cells were treated with 0.5% Triton for 30 min at RT, 100 mM Glycine 30 min at RT, and 10% BSA for 30 min at 37° C. Primary antibody for GM130 (1:1000, BD Biosciences, Franklin Lakes, New Jersey, United States of America) was used to probe for 1 h at RT followed by CY3-conjugated secondary antibody (1:1000) for 1 h at RT in the dark. Actin was stained with fluorescein-conjugated phalloidin (1:300). Hoechst (1:2500) was used to stain the nuclei. Coverslips were mounted onto slides using antifade medium from Life Technologies (Carlsbad, California, United States of America). Images were taken with a Zeiss Axiovert S100 microscope (Carl Zeiss; Thornwood, New York, United States of America).

[5] = Polyethylene Glycol300 (PEG-300), 30%

O=C(N/N=C/c1ccccc1O)c1cc(O)cc(O)c1 [ZCL367, (E)-3,5-dihydroxy-N′-(2-hydroxybenzylidene)benzohydrazide]
gross anatomic toxicity (liver, kidney, spleen) (C57BL/6 mice): no gross anatomic toxicity
pIC50 (Cdc42 [1]): 7.01
pIC50 (RhoA): 4.53
pIC50 (Rac1): 6.72
Lethal Dosage (mice; mouse, in vivo): 0.8 mg/g
Longest Dosing Duration (mice; mouse, in vivo): 2 months
deaths in long-term survival (mice; one injection, 1.6 mg/g, in 1 month): one (day 20) out of four mice died
effect on Cdc42 (mant-GTP binding) (Cdc42 [2]; in the absence of GEF domain): has no effect
effect on Cdc42 (mant-GTP binding) (Cdc42 [2]; in the presence of GEF domain): acts as an inhibitor
Ratio (optical density solution/solvent alone) ([3]; 1,2-Propanediol, 40%): 2.667
optical density of solution ([3]; 1,2-Propanediol, 40%): 0.104
Ratio (optical density solution/solvent alone) ([3]; Dimethyl Sulfoxide (DMSO)): 1.048
optical density of solution ([3]; Dimethyl Sulfoxide (DMSO)): 0.044
Ratio (optical density solution/solvent alone) ([3]; Pluronic F-68, 10%): 2.026
optical density of solution ([3]; Pluronic F-68, 10%): 0.079
Ratio (optical density solution/solvent alone) [3, 5]: 2.333
optical density of solution [3, 5]: 0.091
Ratio (optical density solution/solvent alone) ([3]; Sesame Oil): 2.636
optical density of solution ([3]; Sesame Oil): 0.116
Ratio (optical density solution/solvent alone) ([3]; Sterile Water): 5.211
optical density of solution ([3]; Sterile Water): 0.198
Ratio (optical density solution/solvent alone) ([3]; Tween-80, 0.4%): 3.579
optical density of solution ([3]; Tween-80, 0.4%): 0.136
Ratio (optical density solution/solvent alone) ([3]; dPBS): 2.974
optical density of solution ([3]; dPBS): 0.113
solubility ([3]; in DM19): completely soluble
% ZCL367 (inhibitor activity) (Cdc42 [4]): 100%
bradykinin-mediated activation (Swiss 3T3 cells; Swiss 3T3 cells, bradykinin 100 ng/mL): inhibit bradykinin-mediated activation
changes to cell morphology (Swiss 3T3 cells; after 4 h of treatment, more drastic after six hours): no effects on cell morphology
